For assay [1], the target named is T1, Fatty Acid Binding Protein 4 (FABP4) (Homo sapiens, UniProt P15090).
T1 construct: purchased Cayman, Ann Arbor, Mich
In words: FABP4 Inhibitor/Ligand Screening Kit (fluorescence). Particulars: based on contribution across all actives, read-out: Predicted IC50. How it is done: Fatty Acid Binding Protein 4 (FABP4) inhibition was determined using the Fatty Acid Binding Protein 4 (FABP4) Inhibitor/Ligand Screening Kit (Cayman, Ann Arbor, Mich.). […] Potential inhibitors/ligands of the FABP4 protein were incubated to FABP4 in assay buffer for 15 minutes at room temperature. Arachidonic acid was used as a known inhibitor standard for comparison. The positive control wells received no inhibitor/ligand (i.e., no arachidonic acid or extract) and the negative control wells received no FABP4. The extracts, in solution, were then exposed to a developer that will fluoresce when bound to FABP4. If FABP4 is inhibited, reduction in fluorescence yield is observed. Fluorescence was quantified using a Synergy 4 plate reader that is tuned to excitation/emission wavelengths of 370 nm and 475 nm, respectively. The fluorescence of the negative controls was subtracted from the positive control wells, and the fluorescence from the “undetected” wells was subtracted from the corresponding “detected” wells. An IC50 value was determined based on the percent fluorescence of the corrected extract wells relative to the corrected positive controls.

A further assay relates to 3T3-L1 cells. In words: [1,2-3H]2-Deoxy-D-glucose (2-deoxyglucose) uptake. Format: cell-based. Particulars: for CPM (glucose uptake): 3T3-L1 cells. As to the method: 1. [1,2-^3H]2-Deoxy-D-glucose (2-deoxyglucose) Uptake: Cells, 3T3-L adipocytes, were grown and differentiated as described below. Prior to [^3H]2-deoxyglucose uptake, cells were switched to DMEM with 0.1% bovine serum albumin for 6 h. The [^3H]2-deoxyglucose uptake was assayed as described (D. R. Cooper, J. E. Watson, N. Patel, P. Illingworth, M. Cevedo-Duncan, J. Goodnight, C. E. Chalfant, and H. Mischak, 1999. Ectopic expression of protein kinase CbetaII, -delta, and -epsilon, but not-betaI or -zeta, provide for insulin stimulation of glucose uptake in NIH-3T3 cells. Arch. Biochem. Biophys., 372:69-79; T. P Ciraldi, O. G. Kolterman, and J. M. Olesky, 1981. Mechanism of the postreceptor defect in insulin action in human obesity: decrease in glucose transport system activity. J. Clin Invest., 68:875-880.). […] Uptake was measured by the addition of 10 nmol of [^3H] 2-deoxyglucose (50-150 μCi/μmol) and followed by incubation for 6 min at 37° C. The uptake was terminated by aspiration of media and cell monolayers were washed three times with cold DPBS. Cells were lysed with 1 ml of 1% (w/v) SDS, and radioactivity determined by liquid scintillation counting. The 2-Deoxyglucose uptake refers to transport of the analogue across the plasma membrane operating in tandem with its phosphorylation by hexokinase.

The mark [2] stands for this setting: range across SRB Extracts 1 to 14.

Where two headings read alike, the source gives them in different places.

T1 sequence (P15090 whole entry, species assumed): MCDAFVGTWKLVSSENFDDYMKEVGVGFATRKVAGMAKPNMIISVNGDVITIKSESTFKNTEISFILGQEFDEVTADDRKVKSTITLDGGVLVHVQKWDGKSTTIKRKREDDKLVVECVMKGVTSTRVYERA

As to 24-Nor-4(23),9(11)-fernadiene, the half-maximal inhibitory concentration (IC50) in assay [1] (setting [2]) was 29.9 to 61.3 µM.

Regarding `CCCCCCCCCCCC/C=C\CC/C=C\CC[C@@H](O)[C@H](O)CCCCCCCCCCC1=C[C@H](C)OC1=O` [Montecristin], the IC50 in assay [1] (in SRB Extract 6) was 40 µM; in assay [1] (setting [2]), 17.4 to 69.5 µM.

Turning to `CCCCC/C=C\C/C=C\CCCCCCCC(=O)OCC(CO)OC(=O)CCCCCCC/C=C\C/C=C\CCCCC` (centres unmarked) [Glycerol 1,2-di-(9Z,12Z-octadecadienoate)], the figures for the IC50 in assay [1] (in SRB Extract 6) and in assay [1] (setting [2]) were 24.7 µM and 4.89 to 56 µM, respectively.

As to “Insulin: insulin, comparator for glucose uptake stimulation”, the “Increase over 200 nM Insulin” value in the assay on 3T3-L1 cells (50 nM insulin) and with 3T3-L1 cells (100 nM insulin) was 0.6 throughout. The “Increase over Control” value in the assay on 3T3-L1 cells (50 nM insulin) worked out at 1.1; in the assay with 3T3-L1 cells (100 nM insulin) it was 1.2; in the assay on 3T3-L1 cells (200 nM insulin), 2.0. Moreover, the “Max CPM” value is reported as 149 CPM in the assay with 3T3-L1 cells (50 nM insulin), 157 CPM with 3T3-L1 cells (100 nM insulin) and 266 CPM in the assay with 3T3-L1 cells (200 nM insulin). For the same compound, the entries for the “CPM (glucose uptake)” value in the assay on 3T3-L1 cells (insulin 50 nM), with 3T3-L1 cells (insulin 100 nM) and with 3T3-L1 cells (insulin 200 nM) were 149 CPM, 157 CPM and 266 CPM, respectively.

For the compound `CC1(C)CCC2(C)CCC3(C)C(=C2C1)C=CC1C2(C)CCCC(C)(C)C2CCC13C` (centres unmarked) [11,13(18)-Oleanadiene], the 50% inhibitory concentration (IC50) in assay [1] (in SRB Extract 6) was 91 µM; in assay [1] (setting [2]), 28.3 to 90.3 µM.

In the case of “4,5-Dihydro-4-hydroxy-5-methyl-2-tetradecyl-2(3H)-furanone”, the 50% inhibitory concentration (IC50) in assay [1] (in SRB Extract 6) was 73.3 µM; in assay [1] (setting [2]), 61 to 85 µM.

As to `CCCCCCCCCCCCCCCCCCCCCCCCCCCCCCOC(=O)C=Cc1ccc(O)c(O)c1` [3-(3,4-Dihydroxyphenyl)-2-propenoicacid Triacontyl ester], the IC50 in assay [1] (in SRB Extract 6) is 29.7 µM; in assay [1] (setting [2]) it was 7.99 to 101 µM.

With `CC(=O)CC/C=C(\C)CC/C=C(\C)CC/C=C(\C)CC/C=C(\C)CC/C=C(\C)CC/C=C(\C)CC/C=C(\C)CCC=C(C)C` [Bombiprenone], the IC50 is 26.5 µM in assay [1] (in SRB Extract 6) and 6.96 to 81.2 µM in assay [1] (setting [2]).

Turning to `CC[C@H]1CC[C@H]2[C@@H]3CC(O)C4CC(O)C(O)C[C@]4(C)[C@H]3CC[C@]12C` (some centres unmarked) [Pregnane-2,3,6-triol], the results for the 50% inhibitory concentration (IC50) in assay [1] (in SRB Extract 6) and in assay [1] (setting [2]) were 69.4 µM and 44.2 to 80.4 µM, respectively.

Turning to `CC1CCC2(C)CCC3(C)C(=CCC4C5(C)CCCC(C)C5CCC43C)C2C1C` (centres unmarked) [24-Nor-12-ursene], the IC50 in assay [1] (in SRB Extract 6) was 199 µM; in assay [1] (setting [2]) it was 17.4 to 160 µM.

In the case of `C=C(CCC(C)C1CCC2(C)C3CCC4CC(O)CCC45CC35CCC12C)C(C)C` (centres unmarked) [14-Methyl-9,19-cycloergost-24(28)-en-3-ol], the half-maximal inhibitory concentration (IC50) in assay [1] (in SRB Extract 6) was 60.5 µM; in assay [1] (setting [2]), 21.3 to 25.7 µM.

As for `CCCCCCCCC=CCCCCCCCC1CC(O)C(=O)O1` (centres unmarked) [5-(8-Heptadecenyl)dihydro-3-hydroxy-2(3H)-furanone], the figures for the IC50 in assay [1] (in SRB Extract 6) and in assay [1] (setting [2]) were 96.8 µM and 38.9 to 117 µM, respectively.

Values taken from patent US20100015258A1, “Rice Bran Extracts and Methods of Use Thereof” (priority 2008, published 2010).
